Data as given in US20230146699A1, “EDTA System for Reducing Browning in Mycohide Materials” (MycoWorks, Inc., priority 2021, published 2023).

System: mycohide sheets (mycelium crusts); browning by polyphenol oxidases (PPOs)
Assay: Visual assessment of browning reduction in mycohide (mycelium) sheets/crusts treated with chelating agent
Details: for reduction of surface browning (FIGS. 5-6): 1 mM and 5 mM chelator, plasticized mycohide, dried samples, 15% ALE fatliquor dip, EDTA compared with EGTA
Description: In some embodiments, full sized cotton sheets are treated as defined by four groups: 1) plasticization without any treatment, 2) EDTA treatment only after harvesting sheets (5 mM EDTA 14 in water added on top of mycelia layer after harvest and gently massaged; then plasticize this section in glycerin/water solution), 3) EDTA treatment only during plasticization (plasticize in glycerin/water solution 40%/60% glycerin to water with EDTA at 5 mM), and/or 4) EDTA treatment on both harvested sheets and during plasticization (see above for conditions).

O=C(O)CN(CCN(CC(=O)O)CC(=O)O)CC(=O)O [EDTA, ethylenediaminetetraacetic acid]
reduction of browning, crusts after fatliquoring, wet state (FIG. 9) (1 mM EDTA in water, 70 C for 0.5 hour first, vs control (no EDTA)): more effective at reducing browning than a control group | reduction of surface browning (FIGS. 5-6): achieves greater reductions in browning | reduction of browning, crusts after fatliquoring, wet state (FIG. 9) (5 mM EDTA, 70 C heating step, vs 1 mM EDTA): even greater reductions in browning | reduction of browning, crusts after fatliquoring, dry state (FIG. 10) (5 mM vs 1 mM EDTA, with or without 70 C (0.5 hour) heating step): not more effective than a lower concentration of EDTA at reducing browning | color uniformity of mycelium sheets (EDTA treated sheets vs heat treatment with or without EDTA (FIGS. 16-18)): best color uniformity | browning after EDTA added at different process steps (FIG. 20A, 20B) (full sized cotton sheets, 5 mM EDTA and 16 mM NaOH after harvest and/or during plasticization, varied fat liquor solution conditions): observed decrease in browning | optimum concentration to achieve browning reduction (mycelium sheets, concentrations of EDTA and EGTA optimized): 5 mM | effect of adding EDTA during tanning (D&S) (sheets previously treated with EDTA during harvest or plasticization (FIG. 18A, 18B)): added whitening effect

O=C(O)CN(CCOCCOCCN(CC(=O)O)CC(=O)O)CC(=O)O [EGTA, egtazic acid]
reduction of surface browning (FIGS. 5-6): may be effectively applied
